Legend:
Assay type in all cases: cell-based
Conditions in all cases: SU-DHL-4 cells, test compound 100 nmol/L, 24 hours
BRD2 = target: T1, BRD2 (Homo sapiens, UniProt P25440); assay: Evaluation of BET proteolysis in SU-DHL-4 cell line by Western blotting: BRD2 (Test Example 4)
T1 construct: Changes in the amount of BRD4, BRD2 and BRD3 proteins in the SU-DHL-4 cell line; endogenous in cells; host or cells: SU-DHL-4
Procedure: (§1) The human DLBCL cell line SU-DHL-4 was purchased from DSMZ. SU-DHL-4 was passaged using RPMI1640 medium containing 10 vol % FBS. The culture conditions were 37° C. and 5% CO2.
Anti-BRD2 antibody: Brd2 (D8964) Rabbit mAb (Cell Signaling Technology, Cat No. #5848S)
(§2) Changes in the amount of BRD4, BRD2 and BRD3 proteins in the SU-DHL-4 cell line by the test compound (compound 1b, compound 1l or compound P3) were detected by WB. The compound P3 is a compound described as example 14 in the known Patent Document 2 (WO 2015/081284), which was synthesized according to the method described in Patent Document 2 and used in this test.
(§3) The cultured SU-DHL-4 cells were seeded at 6×10^5 cells/well in a transparent 6-well plate (Code No. 140675, Thermo Fisher Scientific). After seeding, the cells were pre-cultured at 37° C. in a carbon dioxide gas incubator for 18 to 25 hours. Next, a 0.1 mmol/L DMSO solution of the test compound was prepared, diluted so that the concentration was 200-fold of the final concentration in RPMI1640 medium containing the above FBS and PS, and 1/200 volume of the diluted solution was added to each well. At this time, the final concentration of DMSO was adjusted to be 0.1 vol %. After adding the test compound, the cells were cultured at 37° C. in a carbon dioxide gas incubator for 24 hours.
(§4) After collecting the cells, the supernatant was aspirated, and Lysis buffer 6 (R&D systems, Cat No. 895561) was added to the pellet at 0.1 mL/sample. After incubating on ice for 60 minutes, the supernatant was collected by centrifugation at 15000 rpm for 10 minutes at 4° C.
(§5) Using Pierce BCA Protein Assay Kit (Thermo Fisher, Cat No. 23225), the protein concentration of each sample was quantified according to the manual attached to the kit, and then was diluted and prepared with Lane Marker Reducing Sample Buffer (5×) (Thermo Fisher, Cat No. 39000) and Lysis buffer 6 to 1 mg/mL. The cells were incubated at 95° C. for 5 minutes to prepare WB samples. WB samples were stored at −30° C. until electrophoresis.
(§6) The WB sample was thawed and used after vortex mixing and spin down. […]

BRD3 = target: T2, BRD3 (Homo sapiens, UniProt Q15059); assay: Evaluation of BET proteolysis in SU-DHL-4 cell line by Western blotting: BRD3 (Test Example 4)
T2 construct: Changes in the amount of BRD4, BRD2 and BRD3 proteins in the SU-DHL-4 cell line; endogenous in cells; host or cells: SU-DHL-4
T2 sequence (Q15059 whole entry): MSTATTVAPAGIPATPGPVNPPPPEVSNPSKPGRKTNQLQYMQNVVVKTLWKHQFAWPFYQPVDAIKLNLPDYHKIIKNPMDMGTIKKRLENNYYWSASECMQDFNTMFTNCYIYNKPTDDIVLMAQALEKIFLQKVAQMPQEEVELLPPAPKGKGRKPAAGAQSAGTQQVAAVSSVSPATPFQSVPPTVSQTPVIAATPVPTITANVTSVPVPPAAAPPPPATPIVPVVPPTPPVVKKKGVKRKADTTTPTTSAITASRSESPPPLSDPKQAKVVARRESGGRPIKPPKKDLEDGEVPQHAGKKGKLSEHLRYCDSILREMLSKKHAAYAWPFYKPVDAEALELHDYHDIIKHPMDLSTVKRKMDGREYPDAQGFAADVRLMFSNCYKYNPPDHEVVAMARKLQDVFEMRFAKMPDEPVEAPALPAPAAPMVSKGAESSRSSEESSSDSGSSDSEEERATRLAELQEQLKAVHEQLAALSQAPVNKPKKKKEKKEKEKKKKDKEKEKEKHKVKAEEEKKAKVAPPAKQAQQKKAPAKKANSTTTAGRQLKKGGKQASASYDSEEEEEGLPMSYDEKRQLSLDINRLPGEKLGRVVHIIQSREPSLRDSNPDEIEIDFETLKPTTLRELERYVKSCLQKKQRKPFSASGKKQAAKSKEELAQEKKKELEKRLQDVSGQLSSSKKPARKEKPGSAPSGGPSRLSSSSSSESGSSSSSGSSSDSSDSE
Procedure: as §1
Anti-BRD3 antibody: Anti-BRD3 antibody (2088C3a) (Santa Cruz Biotechnology, Cat No. sc-81202)
as §2, §3, §4, §5, §6

BRD4 = target: T3, BRD4 (Homo sapiens, UniProt O60885); assay: Evaluation of BET proteolysis in SU-DHL-4 cell line by Western blotting: BRD4 (Test Example 4)
T3 construct: Changes in the amount of BRD4, BRD2 and BRD3 proteins in the SU-DHL-4 cell line; endogenous in cells; host or cells: SU-DHL-4
Procedure: as §1
Anti-BRD4 antibody: BRD4 (E2A7X) Rabbit mAb (Cell Signaling Technology, Cat No. #13440S)
as §2, §3, §4, §5, §6

T1 sequence (P25440 whole entry): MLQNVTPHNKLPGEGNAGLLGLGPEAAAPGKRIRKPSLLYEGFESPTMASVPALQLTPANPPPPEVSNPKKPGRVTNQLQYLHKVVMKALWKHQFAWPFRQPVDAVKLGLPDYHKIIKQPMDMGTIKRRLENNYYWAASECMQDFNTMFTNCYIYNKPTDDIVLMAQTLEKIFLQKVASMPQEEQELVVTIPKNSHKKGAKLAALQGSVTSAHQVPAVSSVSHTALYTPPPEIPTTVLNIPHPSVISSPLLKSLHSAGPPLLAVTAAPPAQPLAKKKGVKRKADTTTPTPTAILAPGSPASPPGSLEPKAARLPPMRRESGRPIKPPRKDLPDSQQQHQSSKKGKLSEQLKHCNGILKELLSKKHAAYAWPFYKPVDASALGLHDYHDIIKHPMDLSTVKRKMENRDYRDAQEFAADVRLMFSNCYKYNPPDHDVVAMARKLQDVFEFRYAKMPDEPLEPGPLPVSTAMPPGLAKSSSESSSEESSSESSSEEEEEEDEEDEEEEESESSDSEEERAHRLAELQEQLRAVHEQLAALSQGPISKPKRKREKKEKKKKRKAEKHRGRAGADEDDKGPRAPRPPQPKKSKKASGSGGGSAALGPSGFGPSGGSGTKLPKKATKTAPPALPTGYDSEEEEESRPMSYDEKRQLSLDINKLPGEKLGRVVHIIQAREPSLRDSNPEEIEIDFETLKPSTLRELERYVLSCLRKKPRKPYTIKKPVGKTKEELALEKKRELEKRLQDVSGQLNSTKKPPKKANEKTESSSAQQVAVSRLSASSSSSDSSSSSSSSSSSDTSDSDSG

Structure (SMILES)	change in amount of BRD2 protein (band in Western blotting, FIG. 1) (BRD2)	change in amount of BRD3 protein (band in Western blotting, FIG. 1) (BRD3)	change in amount of BRD4 protein (band in Western blotting, FIG. 1) (BRD4)
Cc1sc2c(c1C)C(c1ccc(C(=O)NCCCNC(=O)c3ccc(C4=N[C@@H](CC(=O)OC(C)(C)C)c5nnc(C)n5-c5sc(C)c(C)c54)cc3)cc1)=N[C@@H](CC(=O)OC(C)(C)C)c1nnc(C)n1-2 [Compound 1b, Di-tert-butyl 2,2′-[(6S,6′S)-({[propane-1,3-diylbis(azanediyl)]bis(carbonyl)}bis(4,1-phenylene))bis(2,3,9-trimethyl-6H-thieno[3,2-f][1,2,4]triazolo[4,3-a][1,4]diazepine-4,6-diyl)]diacetate]	the band became faint compared with that of control	the band became faint compared with that of control	the band became faint compared with that of control
CCC(=O)N1c2ccccc2[C@H](Nc2ccc(C(=O)NCC(=O)CNC(=O)c3ccc(N[C@@H]4C[C@H](C)N(C(=O)CC)c5ccccc54)cc3)cc2)C[C@@H]1C [Compound 1l, N,N′-(2-Oxopropane-1,3-diyl)bis(4-{[(2S,4R)-2-methyl-1-propionyl-1,2,3,4-tetrahydroquinolin-4-yl]amino}benzamide)]	the band became faint compared with that of control	the band became faint compared with that of control	the band became faint compared with that of control

Reference: patent US20220378923A1, “BET DEGRADER” (KYOWA KIRIN CO., LTD., priority 2019, published 2022)
